According to PMC6273209, “Evaluation of the Enantiomer Specific Biokinetics and Radiation Doses of [^18F]Fluspidine—A New Tracer in Clinical Translation for Imaging of σ1 Receptors” (Molecules, 2016):

Columns and labels:
[1] = Acute toxicity study, single intravenous injection; assay type: in vivo; details: single intravenous administration, Wistar rats, day 2 and day 15; highest tested dose
Text: Supplementary Materials: Evaluation of the Enantiomer Specific Biokinetics and Radiation Doses of [18F]Fluspidine—A New Tracer in Clinical
Translation for Imaging of σ1 Receptors […]
Supplemental Methods and Results
Animal Toxicity Study of (S)-(−)-Fluspidine
The purpose of this study was to assess the acute toxicity of (S)-(−)-fluspidine when administered by a single intravenous injection to rats followed by an observation period of 2 or 15 day (in accordance with EU cGLP). Briefly, the study was performed with 4 test groups, including 1 control (saline and dimethylsulfoxide) and 3 dose groups (6.2, 62 and 620 µg/kg, (S)- (−)ﬂuspidine), with Wistar rats (60 m, 60 f, 12 weeks) divided into two experiments: day 2 (40 males and 40 females) and day 15 (20 males and 20 females). The animals were weighted and allocated to the test groups based on their actual body weights. The animals were sacrificed at two time periods (day 2 and day 15 after test item administration) and then examined macroscopically and histopathologically. In addition the following parameters were evaluated: mortality, clinical observation (spasms, tremor and hyperactivity), body weights, food consumption, haematology (white blood cells, red blood cells, hemoglobin, hematocrit, mean corpuscular volume, mean corpuscular hemoglobin, platelets, lympohcytes, neutrophils, eosinophils, basophils, monocytes), clinical chemistry (alkaline phosphatase, aspartate aminotransferase, alanine aminotransferase, glucose, cholesterol, triacylglycerols, creatinine, urea, bilirubin, albumin, calcium, phosphorus, sodium, potassium chloride), pathology and histopathology. […]
in either gender were detected. The food consumption corresponded with body weight development. All haematology parameter´s values on day 2 and day 15 were within physiological range for this species. Individual divergences of some values of the haematology parameters were slight and not connected with treatment.
There were no findings in clinical chemistry parameters which could be definitively considered as adverse. The average values of all test groups were within the historical control ranges. Occasional changes had no dose relationship, they were considered to be a result of intraindividual and interindividual variability for this species. […]
histopathological parameters on day 2 and day 15. The no observed effect level (NOEL) of (S)- (−)-fluspidine after single intravenous administration in this study for both day 2 and day 15 was determined to be 620 µg/kg.

σ1 receptors = biological target: σ1 receptors; set-up: method as in PMID 24130175; details: read-out: Ki (affinity towards σ1 receptors); cited from earlier work

Question: With FCC[C@@H]1OC2(CCN(Cc3ccccc3)CC2)c2ccccc21 [(S)-(−)-[^18F]fluspidine] as the molecule, how does the “no observed effect level (NOEL)” value [1] read?
Answer: Its value is ≥ 0.6 mg/kg.

Question: What about the Ki (σ1 receptors) of the same molecule?
Answer: The Ki was 2.3 nM.
